Measurements as given in patent US20240368583A1, “DNA CONSTRUCTS, RECOMBINANT CELLS COMPRISING THEREOF, BACTERIAL PROBES, METHODS FOR THEIR PREPARATION, AND METHOD OF USING THEREOF” (YEDA RESEARCH AND DEVELOPMENT CO. LTD., priority 2019, published 2024).

Experiments:
[1] = system: MDA-MB-435 cells; assay: Fluorescence imaging of bacteria-cell interaction, MDA-MB-435 cells; assay type: cell-based, human; conditions: bacteria linked to duplex with Compound 105; 20 min, washed
Protocol: (§1) Cells (15,000 cells/well) were seeded onto glass bottom culture dishes (MatTek) and allowed to adhere overnight. MDA-MB-435 cells were seeded in MEM medium supplemented with 5% charcoal dextran-stripped calf serum, 1% non-essential amino acids, 1% L-glutamine, and 1% penicillin/streptomycin. KB cells were plated in folate-depleted RPMI supplemented with 10% FBS and 1% penicillin/streptomycin while LNCaP were maintained in RPMI, 10% FBS, 1% L-glutamine, and 1% penicillin/streptomycin. Following day, medium was removed, rinsed thrice with PBS and then the cells were incubated with B-probes 1-4 (prepared by incubating His-bacteria with duplexes 1-4 at 500 nM concentration for 1 h at 25° C. followed by washing with PBS buffer) at 37° C., 5% CO2 in incubator for 20 min. Finally, the excess/unbound bacteria were gently washed off with PBS containing Ca^+2 and Mg^+2 (200 μL×3) and the cells were imaged using a fluorescence microscope with 60× objective lens. […]
(§2) MDA-MB-435 cells, LNCaP and KB cells were maintained in their respective media as mentioned in the previous section. […] After 20 minutes, the unbound bacteria were gently washed off with PBS containing Ca^+2 and Mg^+2 (200 μL×3) and the cells were imaged using a fluorescence microscope and a 60× objective lens.

[2] = Adhesion of modified bacteria to the solid support; conditions: duplex with ODN-1 on His-tagged bacteria; 15 min; control unmodified bacteria
Protocol: A solution of (11-mercaptoundecyl)tetra(ethylene glycol)^9 (2 mM in ethanol) were added to the gold coated substrates and incubated for 2 h. After removing the solution, the slides were washed four times with ethanol. Bacteria samples decorated with a duplex consisting of Compound 102 and Compound 207 were washed twice with PBS, resuspended in 100 μl phosphate buffer (pH=3.8), and then incubated on gold surfaces for 15 min. The solution containing bacteria was removed, and the slides were rinsed three times with PBS, and twice with water. Finally, they were imaged using an Olympus IX51 microscope.
Methods: His-tagged bacteria were decorated with a duplex assembled from ODN-1 and HS-ODN-2 (Compound 207), namely, an ODN-2 that is appended with a thiol group. HS is known to have high affinity to gold. In the following step, unmodified His-tagged bacteria and thiol-modified His-tagged bacteria (FIG. 6A) were incubated with a gold substrate that was previously passivated with (11-mercaptoundecyl)tetra(ethylene glycol) to prevent non-specific bacterial adhesion. Gold surfaces were observed after 15 min incubation. Cells were then incubated with ODN-3 to detach Compound 207 from bacteria membranes.

[3] = biological target: Alexa 647-modified streptavidin (Streptomyces avidinii, UniProt P22629); assay: Bacteria-streptavidin interaction; assay type: cell-based; conditions: duplex with ODN-1 on His-tagged bacteria; Alexa-SA 500 nM, 1 h
Protocol: His-tagged bacterial cells were decorated with a duplex consisting of ODN-1 and Compound 205 duplex according to a similar procedure described above. For binding with streptavidin, cells were incubated with Alexa-647 streptavidin conjugate (500 nM) in PBS×1 for 1 h, and after washing twice with PBS were imaged by fluorescent microscopy. The fluorescent signal was abolished when bacterial cells were treated with ODN-3 (3 μM) for 1 h. The control experiment was performed similarly using bacteria decorated with a duplex containing ODN-1 and the complementary strand.
Methods: His-tagged E. coli were incubated with an ODN-1 molecule and afterwards with a biotin-ODN-2 molecule (Compound 205). Then, the cells were incubated with an Alexa 647-modified streptavidin (FIG. 5A). To verify specificity, the same experiment was performed with an ODN-2 molecule lacking biotin (FIG. 5A). Cells were then incubated with ODN-3 to detach ODN-2 from the cell membranes.

[4] = system: LNCaP cells; assay: Fluorescence imaging of bacteria-cell interaction, LNCaP cells; assay type: cell-based, human; conditions: bacteria linked to duplex with Compound 105; 20 min, washed
Protocol: as §1, §2

[5] = system: His-tagged bacteria; assay: Super-resolution (STORM) microscopy of decorated bacteria; assay type: cell-based, E. coli; conditions: duplex with ODN-1; transverse cut
Protocol: Super-resolution images were collected on a Vutara SR200 STORM (Bruker) microscope based on the single-molecule localization biplane technology. His-tagged bacteria was decorated with ODN-1:Compound 201 duplex according to the procedure described in above. The bacteria were imaged using 647 nm excitation laser and 405 nm activation laser in an imaging buffer composed of 5 mM cysteamine, oxygen scavengers (7 μM glucose oxidase and 56 nM catalase) in 50 mM Tris, 10 mM NaCl and 10% glucose at pH 8.0. Images were recorded using a 60×NA 1.2 water immersion objective (Olympus) and Evolve 512 EMCCD camera (Photometrics) with gain set at 50, frame rate at 50 Hz, and maximal power of 647 and 405 nm lasers set at 6 and 0.05 kW/cm^2, respectively. Total number of frames acquired was 8000. Data was analyzed by the Vutara SRX software.
Methods: Due to the small size of bacteria, super resolution (SR) microscopy was used to visualize E. Coli 's membrane with super resolution (SR). This was achieved by combining ODN-1 with a commercially available ODN-2 (Cy5-ODN-2; Compound 201) bearing a Cy5 dye, which is compatible with stochastic optical reconstruction microscopy (STORM).

[6] = system: E. coli expressing His-OmpC; assay: Decorating bacteria with the oligonucleotides, fluorescence imaging; assay type: cell-based
Protocol: (§3) E. coli K-12 strain KRX (Promega) was used for protein expression. Transformed bacteria with the different OmpC constructs (OmpC or His-OmpC) were cultured to saturation in LB medium supplemented with 100 μg/ml of ampicillin at 30° C. 40 μl of the pre-cultured cells were then diluted into 4 ml of fresh LB medium supplemented with ampicillin, and incubated until the OD600 reaches ˜0.6. Protein expression was then induced by the addition of 0.1% Rhamnose and 20 μM isopropyl-b-D-1-thiogalactopyranoside (IPTG) and cultures were allowed to grow at 30° C. for 18 h. Then, the bacterial cells were harvested by centrifugation at 6,000 g for 4 min.
The bacterial cells (OmpC or His-OmpC) were collected by centrifugation at 6000 g for 4 min. The pellet was washed twice with PBS×1 buffer and resuspended in the same buffer to an OD600 of 0.3. […] Then the bacterial sample were washed twice with PBS, resuspended in 100 μl PBS and placed on a glass-bottom dish (P35G-1.5-14-C; MatTek) precoated with poly-1-lysine (Sigma Aldrich) and left to adhere for 1 h. Finally, the wells were washed vigorously with PBS three times and imaged using an Olympus IX51 fluorescent microscope. The samples were imaged using 60× or 100× objective lenses.

[7] = system: Native bacteria (that lack His-tag); assay: Decorating bacteria with the oligonucleotides, fluorescence imaging (native bacteria control); assay type: cell-based, E. coli; conditions: native bacteria lacking His-OmpC; 500 nM with Ni (II)
Protocol: as §3
The bacterial cells (OmpC or His-OmpC) were collected by centrifugation at 6000 g for 4 min. The pellet was washed twice with PBS×1 buffer and resuspended in the same buffer to an OD600 of 0.3. To a 100 μl sample of the bacteria suspension, a preincubated sample of DNA (500 nM) and NiCl2 (2.5 μM) was added, and the cells were incubated at room temperature for 1 h. Then the bacterial sample were washed twice with PBS, resuspended in 100 μl PBS and placed on a glass-bottom dish (P35G-1.5-14-C; MatTek) precoated with poly-1-lysine (Sigma Aldrich) and left to adhere for 1 h. Finally, the wells were washed vigorously with PBS three times and imaged using an Olympus IX51 fluorescent microscope. The samples were imaged using 60× or 100× objective lenses.

[8] = system: E. coli expressing His-OmpC; assay: Treatment of the modified bacteria with EDTA; assay type: cell-based; conditions: 10 mM EDTA, 1 h
Protocol: Bacterial samples decorated with Compound 100 were incubated with various concentrations of EDTA (0, 5, 10 mM) for 1 h. Cells were then collected (6,000 g, 4 min) and washed twice with […] PBS buffer. Cells were resuspended in 100 μl PBS buffer and added to poly-1-lysine-coated slides for imaging.

Chain of Alexa 647-modified streptavidin (P22629 25-183): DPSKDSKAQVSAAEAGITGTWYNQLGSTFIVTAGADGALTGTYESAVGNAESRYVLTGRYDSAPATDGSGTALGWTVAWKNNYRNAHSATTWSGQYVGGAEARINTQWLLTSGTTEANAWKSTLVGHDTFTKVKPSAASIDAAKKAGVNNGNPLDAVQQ

## Compound 220: alkyne modified Cy5-labeled ODN2 lacking the CSP binder; SEQ ID NO. 6 (DNA TAGGATCAGGCAGCTATGACGTGAC; DNA, backbone not given here; Cy5 label and alkyne modification, further chemistry not fully specified)
[1]
  fluorescent labeling of MDA-MB-435 cells: no labeling was achieved

## Compound 207: ODN-2 that is appended with a thiol group; SEQ ID NO. 6 (TAGGATCAGGCAGCTATGACGTGAC; DNA, backbone and methylation of C not given here; thiol group appended)
[2]
  attachment of thiol-modified bacteria to the gold substrate compared with the control: about 8.5 fold

## Compound 205: biotin-ODN-2 molecule; SEQ ID NO. 6 (TAGGATCAGGCAGCTATGACGTGAC; DNA, backbone and methylation of C not given here; biotin attached)
[3]
  fluorescence of decorated bacteria after incubation with Alexa 647-modified streptavidin: became fluorescent

## Compound 230: alkyne modified FAM-labeled ODN2 lacking the CSP binder; SEQ ID NO. 6 (DNA TAGGATCAGGCAGCTATGACGTGAC; DNA, backbone not given here; FAM label and alkyne modification, further chemistry not fully specified)
[4]
  fluorescent labeling of LNCaP cells: no labeling was achieved

## Compound 201: commercially available ODN-2 bearing a Cy5 dye; SEQ ID NO. 6 (TAGGATCAGGCAGCTATGACGTGAC; DNA, backbone and methylation of C not given here; Cy5 dye attached, commercially available)
[5]
  localisation of the label on bacteria (STORM): only the outer membrane of the bacteria is labeled

## Compound 100: X-ODN-1 with tri-NTA His-tag binder, appended with a Cy5 dye; ODN sequence SEQ ID NO. 1 (GCGGCGAGGCAGC; DNA, backbone and methylation of C not given here; Cy5 dye and tri-NTA His-tag binder attached)
[6]; 500 nM in the absence of nickel ions
  fluorescent decoration of bacteria: No fluorescence
[6]; 500 nM with Ni (II)
  fluorescent decoration of bacteria: successfully decorated
[7]
  fluorescent decoration of bacteria: No fluorescence
[8]
  removal from the cell surface by EDTA: completely removed
